Experimental data as given in PMC12481576, “Barbituric Acid Derivatives as Covalent Inhibitors of Leishmania braziliensis Dihydroorotate Dehydrogenase” (Journal of Medicinal Chemistry, 2025).
In brackets after ≈: the same amount, converted by molar mass. Read-outs that look alike come from different tables or passages of the source.

Tests used:
LbDHODH [1] = molecular target: T1, LbDHODH (Leishmania braziliensis, UniProt E9AI53); assay: Kinact/KI determination from LbDHODH progress curves (kobs vs inhibitor concentration); type: biochemical
T1 sequence (E9AI53 entry or part of it): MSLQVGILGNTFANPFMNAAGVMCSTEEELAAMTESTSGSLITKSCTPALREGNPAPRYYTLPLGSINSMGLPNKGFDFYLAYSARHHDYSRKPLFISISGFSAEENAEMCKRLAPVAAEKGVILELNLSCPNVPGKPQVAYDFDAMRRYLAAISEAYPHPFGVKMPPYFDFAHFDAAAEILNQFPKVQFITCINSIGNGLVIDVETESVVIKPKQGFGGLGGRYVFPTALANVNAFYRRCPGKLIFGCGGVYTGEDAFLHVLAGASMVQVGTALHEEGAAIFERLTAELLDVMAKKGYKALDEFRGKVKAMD
Excerpt: The Kinact/Ki ratio is a key parameter for evaluating the potency of covalent inhibitors, as it quantitatively measures both their reactivity and affinity for the target enzyme. This parameter integrates two crucial aspects: KI, which reflects the inhibitor’s binding affinity, and Kinact, which describes the rate at which the covalent bond is formed. […] Therefore, this ratio is essential for ranking covalent inhibitors, optimizing their potency, and guiding structure-based drug design.
The experiments were performed in a 96-well microplate reader (SpectraMax Plus 384, Molecular Devices, USA), containing the […] of the buffer 60 mM DCIP, 50 mM Tris pH 8.15, 150 mM KCl, 0.1% Triton X-100, 50 μM DHO and 10 μM of LbDHODH at 165 nM. The reaction was monitored every 3 s at 610 nm over a period of 60 s, in triplicate, for the control and each concentration of the inhibitor. All assays were performed without incubation (0h) and with 4-h preincubation of the inhibitor with LbDHODH, using 5% DMSO (v/v) as control. […] To determine the IC50 values, the activity percentage data were fitted as a function of the concentration logarithm by nonlinear regression analysis (variable hillslope) using Prism 9.0 software (GraphPad Software, USA). […] The resulting kobs values were plotted as a function of inhibitor concentration, and the data in the initial linear region was fit to determine the slope, which is kinact/KI. All regressions were performed with GraphPad Prism 9.

[2] = system: Leishmania braziliensis promastigotes; assay: Leishmanicidal activity, promastigote growth (SYBR Green, 72 h); type: cell-based, Leishmania (V.) braziliensis (MHOM/BR/1975/M2904); settings: Leishmania braziliensis, L. braziliensis promastigotes, max 200 μM
Description: The cultures were adjusted to 4 × 10^6 parasites per mL, and 50 μL of each culture was added on a test plate with 384 wells (Corning, #CLS3658), along with the controls and compounds to be tested. Previously diluted compounds in DMSO were added to plates in decreasing concentrations, with a maximum concentration of 200 μM. Parasites were exposed to a final concentration of DMSO in various dilutes (final = 0.5%), and the culture medium was used as the control for the experiment. […] After adding the lysis buffer, the plates were incubated in the dark for 2 h with gentle shaking. The readings were done using a SpectraMax M3 reader (excitation at 485 nm and emission at 535 nm).

LbDHODH [3] = molecular target: T1, LbDHODH; assay: biochemical; settings: for IC50: LbDHODH; for inhibition at 100 µM: read-out: enzyme inhibition
Description: To assess the ability of compounds 2a–2i to inhibit LbDHODH via covalent bond formation with Cys^131, we initially screened them at a concentration of 100 μM under two conditions: with and without a 4-h preincubation with the enzyme.
The experiments were performed in a 96-well microplate reader (SpectraMax Plus 384, Molecular Devices, USA), containing the […] of the buffer 60 mM DCIP, 50 mM Tris pH 8.15, 150 mM KCl, 0.1% Triton X-100, 50 μM DHO and 10 μM of LbDHODH at 165 nM. The reaction was monitored every 3 s at 610 nm over a period of 60 s, in triplicate, for the control and each concentration of the inhibitor. All assays were performed without incubation (0h) and with 4-h preincubation of the inhibitor with LbDHODH, using 5% DMSO (v/v) as control. […]. […] The resulting kobs values were plotted as a function of inhibitor concentration, and the data in the initial linear region was fit to determine the slope, which is kinact/KI. All regressions were performed with GraphPad Prism 9.

[4] = Cell viability / cytotoxicity assay (PrestoBlue, 72 h); type: cell-based; settings: human; THP-1 cell line, 72 h, max 200 μM; read-out: CC50
Description: THP-1 cells (American Type Cell Collection, #TIB-202) were acquired in 2019 and stored frozen in liquid nitrogen. The cells were then maintained in RPMI 1640 (Thermo Fisher Scientific, #S31800–022) at 37 °C in a 5% CO2 atmosphere and routinely tested for Mycoplasma contamination by PCR using the primers 5′-[…] and 5′-[…]. To test the toxicity of compounds, 5000 cells were added to 96-well plates with a final volume of 80 μL centrifuged at 400g for 2 min and incubated with 150 ng/mL of phorbol myristate acetate (Merck, #P8139) for 48 h. The medium was replaced, and after 24 h, the compounds were added and tested at decreasing concentrations starting from 200 μM (10 μL/well). After 72 h of incubation, 10 μL of PrestoBlue Cell Viability Reagent (Thermo Fisher Scientific, #A13262) was added per well. After adding the reagent, the cells were incubated for 2 h at 37 °C in a 5% CO2 atmosphere, and fluorescence readings were performed using the SpectraMax M3 reader (excitation at 560 nm and emission at 590 nm).

HsDHODH = molecular target: T2, HsDHODH (Homo sapiens, UniProt Q02127); assay: Selectivity assay: HsDHODH single-dose inhibition (DCIP reduction); type: biochemical
T2 construct: made in house
T2 sequence (Q02127 whole entry): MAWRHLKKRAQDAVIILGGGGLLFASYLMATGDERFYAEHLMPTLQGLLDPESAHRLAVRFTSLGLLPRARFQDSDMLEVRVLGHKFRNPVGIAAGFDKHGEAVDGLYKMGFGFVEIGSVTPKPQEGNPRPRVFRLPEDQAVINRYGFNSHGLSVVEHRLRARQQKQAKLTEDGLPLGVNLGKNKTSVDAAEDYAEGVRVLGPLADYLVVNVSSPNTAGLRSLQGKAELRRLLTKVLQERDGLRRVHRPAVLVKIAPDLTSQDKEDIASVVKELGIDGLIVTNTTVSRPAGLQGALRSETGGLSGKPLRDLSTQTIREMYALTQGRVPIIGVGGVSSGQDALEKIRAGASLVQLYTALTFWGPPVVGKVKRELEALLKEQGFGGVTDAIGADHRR
Description: […]. This finding highlights the potential of barbituric acid derivatives as selective inhibitors of LbDHODH.
Human DHODH expression and purification were conducted following a protocol previously established in our laboratory. The purification was carried out by affinity chromatography on a Ni-NTA Agarose column (Qiagen[…] Cat. No. 30210). […] The reaction was performed in triplicate, initiated by adding 195 μL of reaction buffer to 5 μL of HsDHODH protein solution for a final concentration of 20 nM enzyme. As a blank, 195 μL of reaction buffer was added to 5 μL of Buffer A. The reaction was monitored at 610 nm every 3 s over 60 s. As a control, 5 μL of enzyme was added to 195 μL of reaction medium without compound. Enzymatic velocity was calculated, and the percentage of relative enzymatic activity was determined relative to the control.

[5] = Kinetic solubility assay in PBS pH 7.4; type: physicochemical; settings: phosphate buffered saline, aqueous buffer, kinetic from dmso stock; PBS pH 7.4, 200 μM test conc, 1% DMSO, 2 h at 25 °C
Description: The plate was incubated for 2 h at 25 °C. The precipitates on the incubation plate were removed by filtration and the filtrates were quantified by LC-MS/MS. Calibration curves were prepared for each compound by using 5–6 points. Samples were analyzed by UV–vis.

[6] = 0 h, pH 8.15, read-out: LbDHODH Activity±SD (%)
[7] = 4 h, pH 8.15, read-out: LbDHODH Activity±SD (%)
[8] = IC50 0 h, without preincubation
[9] = read-out: Single dose (0h) % activity
[10] = read-out: Single dose (4h) % activity

O=C1NC(=O)C(=Cc2ccccc2)C(=O)N1 [2a, 5-Benzylidenepyrimidine-2,4,6(1H,3H,5H)-trione]
Kobs (LbDHODH [1]; inhibitor 0.390625 µM): 0.003884 ± 0.002 s⁻¹ | Kobs (LbDHODH [1]; inhibitor 0.78125 µM): 0.003327 ± 0.002 s⁻¹ | Kobs (LbDHODH [1]; inhibitor 1.5625 µM): 0.003467 ± 0.002 s⁻¹ | Kobs (LbDHODH [1]; inhibitor 3.125 µM): 0.003356 ± 0.002 s⁻¹ | Kobs (LbDHODH [1]; inhibitor 6.25 µM): 0.003415 ± 0.002 s⁻¹ | Kobs (LbDHODH [1]; inhibitor 12.5 µM): 0.003372 ± 0.002 s⁻¹ | Kobs (LbDHODH [1]; inhibitor 25 µM): 0.003515 ± 0.002 s⁻¹ | Kobs (LbDHODH [1]; inhibitor 50 µM): 0.003742 ± 0.001 s⁻¹ | Kobs (LbDHODH [1]; inhibitor 100 µM): 0.004728 ± 0.001 s⁻¹ | Kobs (LbDHODH [1]; inhibitor 200 µM): 0.006479 ± 0.003 s⁻¹ | kinact/KI (LbDHODH [1]; slope of kobs vs inhibitor concentration): 17 M⁻¹ s⁻¹ | EC50 [2]: > 200 µM | activity at 0.195312 µM (LbDHODH [3]; [6]): 108 ± 9% | activity at 0.390625 µM (LbDHODH [3]; [6]): 106 ± 13% | activity at 0.78125 µM (LbDHODH [3]; [6]): 110 ± 8% | activity at 1.5625 µM (LbDHODH [3]; [6]): 103 ± 8% | activity at 3.125 µM (LbDHODH [3]; [6]): 106 ± 8% | activity at 6.25 µM (LbDHODH [3]; [6]): 88 ± 10% | activity at 12.5 µM (LbDHODH [3]; [6]): 73 ± 9% | activity at 25 µM (LbDHODH [3]; [6]): 60 ± 9% | activity at 50 µM (LbDHODH [3]; [6]): 54 ± 9% | activity at 100 µM (LbDHODH [3]; [6]): 36 ± 5% | activity at 200 µM (LbDHODH [3]; [6]): 27 ± 9% | activity at 400 µM (LbDHODH [3]; [6]): 20 ± 2% | activity at 0.195312 µM (LbDHODH [3]; [7]): 110 ± 16% | activity at 0.390625 µM (LbDHODH [3]; [7]): 92 ± 13% | activity at 0.78125 µM (LbDHODH [3]; [7]): 91 ± 6% | activity at 1.5625 µM (LbDHODH [3]; [7]): 84 ± 15% | activity at 3.125 µM (LbDHODH [3]; [7]): 74 ± 10% | activity at 6.25 µM (LbDHODH [3]; [7]): 54 ± 4% | activity at 12.5 µM (LbDHODH [3]; [7]): 55 ± 5% | activity at 25 µM (LbDHODH [3]; [7]): 44 ± 3% | activity at 50 µM (LbDHODH [3]; [7]): 29 ± 10% | activity at 100 µM (LbDHODH [3]; [7]): 21 ± 1% | activity at 200 µM (LbDHODH [3]; [7]): 5 ± 1% | activity at 400 µM (LbDHODH [3]; [7]): 6 ± 2% | IC50 (LbDHODH [3]; [8]): 56 ± 5 µM | IC50 (LbDHODH [3]; IC50 4 h, 4-h preincubation): 13 ± 2 µM | activity at 100 µM (LbDHODH [3]; [9]): 11 ± 9% | activity at 100 µM (LbDHODH [3]; [10]): 3.5 ± 0.2% | inhibition at 100 µM (LbDHODH [3]): 96.5% | CC50 at 72 h [4]: > 200 µM | activity at 100 µM (HsDHODH; [9]): 87 ± 10% | activity at 100 µM (HsDHODH; [10]): 79 ± 8%

O=C1NC(=O)C(=Cc2cccc(O)c2)C(=O)N1 [2g, 5-(3-Hydroxybenzylidene)pyrimidine-2,4,6(1H,3H,5H)-trione]
Kobs (LbDHODH [1]; inhibitor 0.390625 µM): 0.003649 ± 0.003 s⁻¹ | Kobs (LbDHODH [1]; inhibitor 0.78125 µM): 0.003674 ± 0.003 s⁻¹ | Kobs (LbDHODH [1]; inhibitor 1.5625 µM): 0.00383 ± 0.002 s⁻¹ | Kobs (LbDHODH [1]; inhibitor 3.125 µM): 0.003621 ± 0.002 s⁻¹ | Kobs (LbDHODH [1]; inhibitor 6.25 µM): 0.003878 ± 0.002 s⁻¹ | Kobs (LbDHODH [1]; inhibitor 12.5 µM): 0.004049 ± 0.002 s⁻¹ | Kobs (LbDHODH [1]; inhibitor 25 µM): 0.004549 ± 0.002 s⁻¹ | Kobs (LbDHODH [1]; inhibitor 50 µM): 0.005211 ± 0.002 s⁻¹ | Kobs (LbDHODH [1]; inhibitor 100 µM): 0.007035 ± 0.001 s⁻¹ | Kobs (LbDHODH [1]; inhibitor 200 µM): 0.01421 ± 0.003 s⁻¹ | Kobs (LbDHODH [1]; inhibitor 400 µM): 0.01927 ± 0.006 s⁻¹ | EC50 [2]: > 200 µM | activity at 0.78125 µM (LbDHODH [3]; [6]): 90 ± 9% | activity at 1.5625 µM (LbDHODH [3]; [6]): 106 ± 12% | activity at 3.125 µM (LbDHODH [3]; [6]): 78 ± 13% | activity at 6.25 µM (LbDHODH [3]; [6]): 106 ± 15% | activity at 12.5 µM (LbDHODH [3]; [6]): 101 ± 10% | activity at 25 µM (LbDHODH [3]; [6]): 82 ± 17% | activity at 50 µM (LbDHODH [3]; [6]): 63 ± 8% | activity at 100 µM (LbDHODH [3]; [6]): 45 ± 5% | activity at 200 µM (LbDHODH [3]; [6]): 29 ± 3% | activity at 400 µM (LbDHODH [3]; [6]): 21 ± 2% | activity at 0.78125 µM (LbDHODH [3]; [7]): 88 ± 8% | activity at 1.5625 µM (LbDHODH [3]; [7]): 72 ± 9% | activity at 3.125 µM (LbDHODH [3]; [7]): 77 ± 13% | activity at 6.25 µM (LbDHODH [3]; [7]): 75 ± 10% | activity at 12.5 µM (LbDHODH [3]; [7]): 58 ± 5% | activity at 25 µM (LbDHODH [3]; [7]): 36 ± 4% | activity at 50 µM (LbDHODH [3]; [7]): 23 ± 3% | activity at 100 µM (LbDHODH [3]; [7]): 12.1 ± 2% | activity at 200 µM (LbDHODH [3]; [7]): 7.1 ± 2% | activity at 400 µM (LbDHODH [3]; [7]): 5.4 ± 3% | IC50 (LbDHODH [3]; [8]): 90 ± 10 µM | IC50 (LbDHODH [3]; IC50 4 h, 4-h preincubation): 13 ± 1 µM | activity at 100 µM (LbDHODH [3]; [9]): 22 ± 4% | activity at 100 µM (LbDHODH [3]; [10]): 8 ± 2% | inhibition at 100 µM (LbDHODH [3]): 90 to 93% | CC50 at 72 h [4]: 76 ± 12 µM | activity at 100 µM (HsDHODH; [9]): 101 ± 11% | activity at 100 µM (HsDHODH; [10]): 96 ± 9%

O=C(CCCN1CCC(O)(c2ccc(Cl)cc2)CC1)c1ccc(F)cc1 [Haloperidol, reference compound]
solubility kinetic at 2 h [5]: 30.3 µM (≈ 11.4 µg/mL)
